# CN110668932A, “一种共晶体及制备方法、包含共晶体的药物组合物及用途” (Individual, priority 2019, dated 2020)
# What was measured:
# [1] = Liver injury side effect experiment in mice, ALT and AST (Experimental Example 5); format: in vivo, mouse; conditions: 0.012 g/kg, gavage, 2 weeks, Kunming mice; for ALT / ASL: serum, compared with normal control group
# [2] = tested on: human gastric cancer SGC-7901 cells, human liver cancer Bet-7402 cells, human lung cancer H460 cells (人胃癌SGC-7901细胞、人肝癌Bet-7402细胞、人肺癌H460细胞); assay: In vivo antitumour experiment in mice (Experimental Example 1); design: species or system mouse; conditions: 2 mg/kg active ingredient, oral, twice daily, 15-20 days; for tumor size / weight vs negative control group: compared with negative control group; for tumor inhibition effect: mice
# [3] = tested on: metabolic syndrome model rats (代谢综合征模型大鼠); assay: Effect in metabolic syndrome model rats (Experimental Example 4); format: in vivo, rat; conditions: 10 mL/kg, once daily, gavage, 8 weeks; for serum LDL-C level vs control group / serum TG level vs control group: compared with control group (standard feed); for serum LDL-C level vs model group / serum TG level vs model group: compared with model group
SMILES,liver injury effect [1],ALT [1],ASL [1],tumor size / weight vs negative control group [2],tumor inhibition effect [2],serum LDL-C level vs control group [3],serum TG level vs control group [3],serum LDL-C level vs model group [3],serum TG level vs model group [3]
"COc1cc(CCC(=O)CC(=O)CCc2ccc(O)c(OC)c2)ccc1O [SHCUR, 四氢姜黄素]",没有明显肝损伤作用,与正常对照组相近,与正常对照组相近,"肿瘤明显减小,低于阴性对照组",具有较好的抑制肿瘤的效果,较高,较高,较低,较低
O=C(CCc1ccc(O)cc1)CC(=O)CCc1ccc(O)cc1 [四氢双去甲氧基姜黄素],没有明显肝损伤作用,与正常对照组相近,与正常对照组相近,"肿瘤明显减小,低于阴性对照组",具有较好的抑制肿瘤的效果,较高,较高,较低,较低
CC(=O)O[C@H]1C(=O)[C@@]2(C)[C@H]([C@H](OC(=O)c3ccccc3)[C@]3(O)C[C@H](OC(=O)[C@H](O)[C@@H](NC(=O)c4ccccc4)c4ccccc4)C(C)=C1C3(C)C)[C@]1(OC(C)=O)CO[C@@H]1C[C@@H]2O [紫杉醇],,,,"肿瘤明显减小,低于阴性对照组",具有较好的抑制肿瘤的效果,,,,
"COc1cc(CCC(=O)CC(=O)CCc2ccc(O)cc2)ccc1O [SHDMCUR, 四氢去甲氧基姜黄素]",没有明显肝损伤作用,与正常对照组相近,与正常对照组相近,"肿瘤明显减小,低于阴性对照组",具有较好的抑制肿瘤的效果,较高,较高,较低,较低
